Data on 23 compounds can be found in patent US20050148634A1, “1-N-Aminobenzimidazole derivatives” (ZERIA PHARMACEUTICAL CO., LTD, priority 2002, published 2005).

Each structure is given as a SMILES string.

One data set deals with T1, human CYP2C19 (Homo sapiens, UniProt P33261).
T1 construct: purchased Sumitomo Chemical Co., Ltd
Put plainly: Test 3 human CYP2C19 activity inhibition test (S-(+)-mephenyloin to 4'-hydroxymephenyloin). Format: in vitro ADME. The settings on record: test compound 10 μM, microsomes from human CYP2C19 expression system, formed 4'-hydroxymephenyloin compared with control. As for the experimental part:
Test 3 (Human CPY2C19 Activity Inhibition Test)
CYP2C19 specifically induces the metabolic reaction of from S-(+)-mephenyloin into 4′-hydroxymephenyloin. Using the CYP2C19 expression system, the inhibitory effect of each test substance was investigated based on the amount (concentration) of formed 4′-hydroxymephenylion as an index of CYP2C19 activity.
a) Metabolic Activity Test
As a reaction mixture, a 125 μmol/L solution of S-(+)-mephenyloin in methanol (50 μL) and a 25 μmol/L solution of each test substance in methanol (0, 10, 100 or 200 μL) were added to 10-mL test tube made of glass, and the solvent was distilled off under a nitrogen gas stream (40° C.).
After incubated at 37° C. for 10 minutes, a 12% aqueous solution of perchloric acid (50 μL) was added to terminate the reaction.
Subsequent to the termination of the reaction, 10 μg/mL methyl p-hydroxybenzoate (50 μL) as an internal standard (I.S.) and diethyl ether (2 mL) were added. The resulting mixture was shaken for 10 minutes, and then centrifuged (3,000 rpm, 10 minutes). The organic layer was separately collected, and under a nitrogen gas stream (40° C.), the solvent was distilled off. The residue was dissolved in a mobile phase (200 μL), and an analysis was conducted by high performance liquid chromatography (HPLC).
Using a solution of 4′-hydroxymephenyloin in lieu of the S-(+)-mephenyloin solution, a calibration line was prepared following the above-described reaction method. Quantitation was conducted based on a peak area ratio of 4′-hydroxymephenyloin to the I.S. Comparing the formed amount of 4′-hydroxymephenyloin as a control with that of 4′-hydroxymephenyloin at the time of the existence of the test compound, the comparison result was used as an index of activity.
HPLC was conducted under the following HPLC conditions A or HPLC conditions B. […]

Data set [1] relates to histamine-stimulated gastric acid secretion. The experiment in a line: Test 2 gastric acid secretion inhibitory effect, acute fistula method. Format: in vivo, Sprague-Dawley (SD) rats. Conditions: male SD rats, administered into the duodenum, total gastric acid secreted on 3rd-5th hours, Probit method; for ED50: Rattus norvegicus. As for the experimental part: Test 2 (Gastric Acid Secretion Inhibitory Effect)
(1) As laboratory animals, seven-week old male Sprague-Dawley (SD) rats were purchased from CHARLES RIVER JAPAN, INC. Subsequent to preliminary rearing for 5 days or longer, they were used in an experiment.
Each test medicine was suspended or dissolved in a 0.5% carboxymethylcellulose sodium solution to prepare a volume of 2.5 mL/kg.
(2) Measurement of Gastric Acid Secretion
Using rats fasted for 18 hours, histamine-stimulated gastric acid secretion in an acute fistula method following the method reported by Hiramatsu et al. (Dig. Dis. Sci., 39, 689-697 (1994)) was measured. Described specifically, each rat was lightly anesthetized with diethyl ether. After that, a winged tube needle with 3.8% citric acid solution filled therein was caused to dwell in the caudal vein. Celiotomy was performed, and the pyloric part of the stomach was ligated. A small hole was then formed in the duodenum, and a feeding tube with physiological saline filled therein was caused to dwell there. After the interior of the stomach was washed with physiological saline, a polyethylene-made fistula tube (inner diameter: 4 mm) was fitted to the proventriculus part and an incised part of the proventriculus was ligated to hold the fistula tube in place. The stomach and duodenum were returned into the abdominal cavity. Celiotomy was performed with the fistula tube and feeding tube being left extending outside, and the rat was placed in a Ballman Cage Type II. Histamine was continuously injected through the winged needle allowed to dwell in the caudal vein (8 mg/kg/h, 1.38 mL/h). Fifteen minutes later, the gastric juice was sampled, and after that, the gastric juice was sampled at intervals of 1 hour. After the amount of each gastric juice sample was recorded, it was titrated with 0.1 mol/L NaOH to a final point of pH 7.0. From the volume required for the titration, the acidity was calculated. The quantity of the secreted gastric acid was determined from the product of the amount of the gastric juice and the acidity. Incidentally, the rats were divided into groups such that the total amount of the first gastric juice samples became equal in each group. Each test medicine was administered in a volume of 2.5 mL/kg into the duodenum through the feeding tube fitted beforehand in the duodenum. To a control group, 0.5% Na—CMC solution was administered.
(3) Analysis of the Results
From the results so obtained, data were presented in terms of average ±S.D. The sum of quantities of gastric acid secreted on the 3rd, 4th and 5th hours after the first sampling was recorded as a total quantity of secreted gastric acid. The percent inhibition in each group was calculated from the total quantity of secreted gastric acid in the control group and the total quantity of secreted gastric acid in the group. From the percent inhibition in each group, the 50% effective dose (ED50) was next calculated by the Probit method.

T1 sequence (P33261 whole entry): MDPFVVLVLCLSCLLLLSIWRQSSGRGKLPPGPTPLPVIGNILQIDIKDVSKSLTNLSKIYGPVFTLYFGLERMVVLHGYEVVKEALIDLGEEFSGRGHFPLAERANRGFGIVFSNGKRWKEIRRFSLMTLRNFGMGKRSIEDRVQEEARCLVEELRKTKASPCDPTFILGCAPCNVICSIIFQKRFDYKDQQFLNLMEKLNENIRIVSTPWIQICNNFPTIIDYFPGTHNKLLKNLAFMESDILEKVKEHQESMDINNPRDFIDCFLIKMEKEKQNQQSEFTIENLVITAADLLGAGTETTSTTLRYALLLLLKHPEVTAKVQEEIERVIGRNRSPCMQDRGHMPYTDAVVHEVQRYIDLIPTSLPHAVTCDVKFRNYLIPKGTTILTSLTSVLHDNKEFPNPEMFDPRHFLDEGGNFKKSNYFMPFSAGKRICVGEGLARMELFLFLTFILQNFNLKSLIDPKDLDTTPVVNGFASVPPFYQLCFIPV

Take `COc1c(OCC(F)(F)F)ccnc1C[S+]([O-])c1nc2ccccc2n1NCCCO` (racemic) [Example 59]: the “CYP2C19 activity inhibition (%)” value at human CYP2C19 is 61.7%. For `Cc1c(OCC(F)(F)F)ccnc1C[S+]([O-])c1nc2ccccc2[nH]1` (stereo not shown) [Lansoprazole, lansoprazole, reference compound], the ED50 (in general, the dose at which the effect has come halfway, by size or by number of responders) in data set [1] was found to be 1.1 mg/kg. Further, at human CYP2C19, the “CYP2C19 activity inhibition (%)” value was 8.7%. On the same counts, the results for `COc1ccc2[nH]c([S+]([O-])Cc3ncc(C)c(OC)c3C)nc2c1` (stereo not shown) [Omeprazole, omeprazole, reference compound] are 3.6 mg/kg and 18.4%.

Take `Cc1c(OCCOCC(F)(F)F)ccnc1C[S+]([O-])c1nc2ccccc2n1NCCCO` (racemic) [Example 60]: on human CYP2C19, the “CYP2C19 activity inhibition (%)” value is reported as 71.4%. The same measure, in the same setting: then `COc1c(OCCOCC(F)(F)F)ccnc1C[S+]([O-])c1nc2ccccc2n1N` (racemic) [Example 24], with 81.9%; and `Cc1c(OCCOCC(F)(F)F)ccnc1C[S+]([O-])c1nc2ccccc2n1N` (racemic) [Example 23], with 75.6%; and `Cc1c(OCCCOCC(F)(F)F)ccnc1C[S+]([O-])c1nc2ccccc2n1NCCCO` (racemic) [Example 62], with 95.3%. In data set [1], `COc1ccnc(C[S+]([O-])c2nc3ccc(OC(F)F)cc3[nH]2)c1OC` (stereo not shown) [Pantoprazole, pantoprazole, reference compound] registered a median effective dose (ED50) of 0.34 mg/kg. Moreover, the “CYP2C19 activity inhibition (%)” value at human CYP2C19 stood at 33.1%.

On to `Cc1c(OCC(F)(F)F)ccnc1C[S+]([O-])c1nc2ccccc2n1NCC(C)O` (mixture of isomers) [Example 55], for which, in data set [1], the “Gastric acid secretion inhibitory effect ED50” value worked out at 3.6 mg/kg. Also, the “CYP2C19 activity inhibition (%)” value at human CYP2C19 was 63.8%. For `COCCCOc1ccnc(C[S+]([O-])c2nc3ccccc3n2NCCCO)c1C` (racemic) [Example 57], the “CYP2C19 activity inhibition (%)” value on human CYP2C19 (listed as Racemic mixture of Example 57, 10 µM) was 73%. For the compound `COc1c(OCCCC(F)(F)F)ccnc1C[S+]([O-])c1nc2ccccc2n1N` (racemic) [Example 26], the “Gastric acid secretion inhibitory effect ED50” value in data set [1] was 2.6 mg/kg. In addition, the “CYP2C19 activity inhibition (%)” value on human CYP2C19 turned out to be 73.2%. Turning to `COc1c(OCCOCC(F)(F)F)ccnc1C[S+]([O-])c1nc2ccccc2n1NCCCO` (racemic) [Example 61], the “CYP2C19 activity inhibition (%)” value on human CYP2C19 was 64.8%. Consider `Cc1c(OCC(F)(F)F)ccnc1C[S+]([O-])c1nc2ccccc2n1NCCCO` (single isomer, unassigned; (+)) [(+) Isomer of Example 36], for which, in data set [1], the “Gastric acid secretion inhibitory effect ED50” value was 1.1 mg/kg. Moreover, the “CYP2C19 activity inhibition (%)” value on human CYP2C19 (10 µM) was 70.6%. As to `COc1ccc2nc([S@@+]([O-])Cc3ncc(C)c(OC)c3C)[nH]c2c1` [Esomeprazole, esomeprazole, reference compound], in data set [1], it took a dose of 2.9 mg/kg to reach the 50% effect level (ED50). In addition, on human CYP2C19, the “CYP2C19 activity inhibition (%)” value turned out to be 35.4%. Regarding `COCCCOc1ccnc(C[S+]([O-])c2nc3ccccc3n2NCCCO)c1C` (single isomer, unassigned; (-)) [(−) Isomer of Example 57], the “CYP2C19 activity inhibition (%)” value at human CYP2C19 (10 µM) is 77.6%. As to `Cc1c(OCCCC(F)(F)F)ccnc1C[S+]([O-])c1nc2ccccc2n1N` (racemic) [Example 25], the “Gastric acid secretion inhibitory effect ED50” value in data set [1] was found to be 1.1 mg/kg. In the case of `Cc1c(OCC(F)(F)F)ccnc1C[S+]([O-])c1nc2ccccc2n1NCCCO` (racemic) [Example 36], on human CYP2C19 (listed as Racemic mixture of Example 36, 10 µM), the “CYP2C19 activity inhibition (%)” value is 61.7%. For the compound `Cc1c(OCC(F)(F)F)ccnc1C[S+]([O-])c1nc2ccccc2n1NCCN(C)C` (racemic) [Example 48], the “CYP2C19 activity inhibition (%)” value at human CYP2C19 was found to be 72.3%.

For `COCCCOc1ccnc(C[S+]([O-])c2nc3ccccc3n2NCCCO)c1C` (single isomer, unassigned; (+)) [(+) Isomer of Example 57], the “CYP2C19 activity inhibition (%)” value on human CYP2C19 (10 µM) was 67.4%.

Consider `COCCCOc1ccnc(C[S+]([O-])c2nc3ccccc3n2NCC(C)O)c1C` (mixture of isomers) [Example 63], for which the “CYP2C19 activity inhibition (%)” value on human CYP2C19 came to 72.1%.

`COCCCOc1ccnc(C[S+]([O-])c2nc3ccccc3[nH]2)c1C` (stereo not shown) [Rabeprazole, rabeprazole, reference compound] had a median effective dose (ED50) in data set [1] of 2.5 mg/kg. In addition, on human CYP2C19, the “CYP2C19 activity inhibition (%)” value worked out at 39.8%. With `COCCCOc1ccnc(C[S+]([O-])c2nc3ccccc3n2N)c1C` (racemic) [Example 21], the “CYP2C19 activity inhibition (%)” value on human CYP2C19 came out at 78.6%. On the same count and under the same terms, in the case of `COCCOc1ccnc(C[S+]([O-])c2nc3ccccc3n2NCCCO)c1C` (racemic) [Example 58] it was 67.3%.
